{"source": "ChEMBL document CHEMBL2203186", "about": "“T-type Ca2+ channel blocker, KYS05047 induces G1 phase cell cycle arrest by decreasing intracellular Ca2+ levels in human lung adenocarcinoma A549 cells” (Bioorg Med Chem Lett, 2012)", "key": {"[1]": {"system": "Mus musculus", "experiment": "Toxicity in BALB/c nu/nu mouse assessed as mortality at 20 mg/kg, ip administered twice a week for 21 days", "type": "organism-based", "parameters": "dose 20 mg/kg, route intraperitoneal", "conditions": "in vivo, 504 h"}, "[2]": {"system": "Mus musculus", "experiment": "Toxicity in BALB/c nu/nu mouse assessed as change in body weight at 20 mg/kg, ip administered twice a week for 21 days", "type": "organism-based", "parameters": "dose 20 mg/kg, route intraperitoneal", "conditions": "in vivo, 504 h"}, "[3]": {"system": "A549", "experiment": "Antitumor activity against human A549 cells xenografted in BALB/c nu/nu mouse assessed as tumor growth inhibition at 20 mg/kg, ip administered twice a week for 21 days", "type": "functional, organism-based", "parameters": "dose 20 mg/kg"}, "[4]": {"system": "A549", "experiment": "Upregulation of p27Kip1 protein level in human A549 cells at 7 uM by Western blot method", "type": "functional, cell-based", "conditions": "TDE = time-dependent effect"}, "[5]": {"system": "A549", "experiment": "Cell cycle arrest at G1 phase in human A549 cells at 7 uM after 24 hrs using propidium iodide by flow cytometry in presence of KCl", "type": "functional, cell-based"}, "[6]": {"system": "A549", "experiment": "Upregulation of p27Kip1 protein level in human A549 cells assessed as inhibition of AKT activity at 7 uM by Western blot method", "type": "functional, cell-based", "conditions": "TDE = time-dependent effect"}, "[7]": {"system": "A549", "experiment": "Downregulation of Cdk4 protein level in human A549 cells at 7 uM after 3 to 24 hrs by Western blot method", "type": "functional, cell-based"}, "[8]": {"system": "A549", "experiment": "Growth inhibition of human A549 cells at 6 to 48 hrs by trypan Blue assay", "type": "functional, cell-based"}, "[9]": {"system": "A549", "experiment": "Cell cycle arrest in human A549 cells assessed as reduction in cells at S phase at 2 to 7 uM after 24 hrs using propidium iodide by flow cytometry", "type": "functional, cell-based"}, "[10]": {"system": "A549", "experiment": "Effect on Cyclin E protein level in human A549 cells at 7 uM after 3 to 24 hrs by Western blot method", "type": "functional, cell-based"}, "[11]": {"system": "A549", "experiment": "Upregulation of p27Kip1 protein level in human A549 cells assessed as inhibition of CDK2 activity at 7 uM by Western blot method", "type": "functional, cell-based", "conditions": "TDE = time-dependent effect"}, "[12]": {"system": "A549", "experiment": "Antitumor activity against human A549 cells xenografted in BALB/c nu/nu mouse assessed as tumor growth inhibition at 2 to 10 mg/kg, po administered 5 times a week for 21 days", "type": "functional, organism-based"}, "[13]": {"system": "A549", "experiment": "Cell cycle arrest at G1 phase in human A549 cells at 7 uM after 24 hrs using propidium iodide by flow cytometry", "type": "functional, cell-based"}, "[14]": {"system": "A549", "experiment": "Inhibition of T-type Ca2+ channel in human A549 cells assessed as reduction in intracellular ca2+ level at 3 to 8 uM after 108 mins by Fluo-4 staining method in presence of KCl", "type": "cell-based"}, "[15]": {"system": "A549", "experiment": "Growth inhibition of human A549 cells at 4 to 12 uM by trypan Blue assay", "type": "functional, cell-based", "conditions": "TDE = time-dependent effect"}, "[16]": {"system": "A549", "experiment": "Effect on p21Waf1 protein level in human A549 cells at 7 uM after 3 to 24 hrs by Western blot method", "type": "functional, cell-based"}, "[17]": {"system": "A549", "experiment": "Effect on Cyclin D1 protein level in human A549 cells at 7 uM after 3 to 24 hrs by Western blot method", "type": "functional, cell-based"}, "[18]": {"system": "A549", "experiment": "Upregulation of p27Kip1 protein level in human A549 cells assessed as inhibition of CDK4-mediated Rb phosphorylation at 7 uM by Western blot method", "type": "functional, cell-based", "conditions": "TDE = time-dependent effect"}, "[19]": {"system": "A549", "experiment": "Downregulation of Cdk2 protein level in human A549 cells at 7 uM after 3 to 24 hrs by Western blot method", "type": "functional, cell-based"}, "[20]": {"system": "A549", "experiment": "Cytocidal activity in human A549 cells at 6 to 8 uM by trypan Blue assay", "type": "functional, cell-based"}, "[21]": {"system": "A549", "experiment": "Upregulation of p27Kip1 protein level in human A549 cells assessed as inhibition of mTOR activity at 7 uM by Western blot method", "type": "functional, cell-based", "conditions": "TDE = time-dependent effect"}, "[22]": {"system": "A549", "experiment": "Inhibition of T-type Ca2+ channel in human A549 cells assessed as reduction in intracellular ca2+ level at 3 to 8 uM after 108 mins by Fluo-4 staining method", "type": "cell-based"}}, "note": "The source made the active and inactive calls. The calls are words filed in the database; no cut-off is given here.", "data": [{"compound": "CC(=O)O[C@H]1C(=O)[C@@]2(C)[C@H]([C@H](OC(=O)c3ccccc3)[C@]3(O)C[C@H](OC(=O)[C@H](O)[C@@H](NC(=O)c4ccccc4)c4ccccc4)C(C)=C1C3(C)C)[C@]1(OC(C)=O)CO[C@@H]1C[C@@H]2O", "note": "[PACLITAXEL]", "values": [{"measurement": "Activity", "setting": "[1]", "result": "Non-toxic"}, {"measurement": "Activity", "setting": "[2]", "result": "Non-toxic"}, {"measurement": "TGI", "setting": "[3]", "result": "Active"}]}, {"compound": "CC(C)(C)OC(=O)NCCCCCN1C(Nc2ccc(-c3ccccc3)cc2)=Nc2ccccc2C1CC(=O)NCc1ccccc1", "note": "(configuration not stated)", "values": [{"measurement": "Activity", "setting": "[4]", "result": "tde"}, {"measurement": "Activity", "setting": "[5]", "result": "inactive"}, {"measurement": "inhibition", "setting": "[6]", "result": "tde"}, {"measurement": "Activity", "setting": "[7]", "result": "Active"}, {"measurement": "growth inhibition (GI)", "setting": "[8]", "result": "Dose-dependent effect"}, {"measurement": "Activity", "setting": "[9]", "result": "Active"}, {"measurement": "Activity", "setting": "[10]", "result": "inactive"}, {"measurement": "inhibition", "setting": "[11]", "result": "tde"}, {"measurement": "TGI", "setting": "[12]", "result": "Active"}, {"measurement": "Activity", "setting": "[13]", "result": "Active"}, {"measurement": "inhibition", "setting": "[14]", "result": "inactive"}, {"measurement": "growth inhibition (GI)", "setting": "[15]", "result": "tde"}, {"measurement": "Activity", "setting": "[16]", "result": "inactive"}, {"measurement": "Activity", "setting": "[17]", "result": "inactive"}, {"measurement": "inhibition", "setting": "[18]", "result": "tde"}, {"measurement": "Activity", "setting": "[19]", "result": "Active"}, {"measurement": "Activity", "setting": "[20]", "result": "inactive"}, {"measurement": "inhibition", "setting": "[21]", "result": "tde"}, {"measurement": "inhibition", "setting": "[22]", "result": "Active"}]}]}
